Data as given in ChEMBL document CHEMBL5727241, “Benzazepine dicarboxamide compounds with tertiary amide function” (2019).

What was measured:
Toll-like receptor 7 = molecular target: T1, Toll-like receptor 7 (Homo sapiens, UniProt Q9NYK1); assay: (§1) Pharmacological Assay: For TLR8 and TLR7 activity testing, HEK-Blue human TLR8 or TLR7 cells (Invivogen, San Diego, Calif., USA) are used, respectively. These cells are designed for studying the stimulation of human TLR8 or TLR7 by monitoring the activation of NF-κB. A SEAP (secreted embryonic alkaline phosphatase) reporter gene is placed under the control of the IFN-b minimal promoter fused to five NF-κB and AP-1-binding sites. Therefore the reporter expression is regulated by the NF-κB promoter upon stimulation of human TLR8 or TLR7 for 20 hours. The cell culture supernatant SEAP reporter activity was determined using Quanti Blue kit (Invivogen, San Diego, Ca, USA) at a wavelength of 640 nm, a detection medium that turns purple/blue in the presence of alkaline phosphatase.
T1 sequence (Q9NYK1 whole entry): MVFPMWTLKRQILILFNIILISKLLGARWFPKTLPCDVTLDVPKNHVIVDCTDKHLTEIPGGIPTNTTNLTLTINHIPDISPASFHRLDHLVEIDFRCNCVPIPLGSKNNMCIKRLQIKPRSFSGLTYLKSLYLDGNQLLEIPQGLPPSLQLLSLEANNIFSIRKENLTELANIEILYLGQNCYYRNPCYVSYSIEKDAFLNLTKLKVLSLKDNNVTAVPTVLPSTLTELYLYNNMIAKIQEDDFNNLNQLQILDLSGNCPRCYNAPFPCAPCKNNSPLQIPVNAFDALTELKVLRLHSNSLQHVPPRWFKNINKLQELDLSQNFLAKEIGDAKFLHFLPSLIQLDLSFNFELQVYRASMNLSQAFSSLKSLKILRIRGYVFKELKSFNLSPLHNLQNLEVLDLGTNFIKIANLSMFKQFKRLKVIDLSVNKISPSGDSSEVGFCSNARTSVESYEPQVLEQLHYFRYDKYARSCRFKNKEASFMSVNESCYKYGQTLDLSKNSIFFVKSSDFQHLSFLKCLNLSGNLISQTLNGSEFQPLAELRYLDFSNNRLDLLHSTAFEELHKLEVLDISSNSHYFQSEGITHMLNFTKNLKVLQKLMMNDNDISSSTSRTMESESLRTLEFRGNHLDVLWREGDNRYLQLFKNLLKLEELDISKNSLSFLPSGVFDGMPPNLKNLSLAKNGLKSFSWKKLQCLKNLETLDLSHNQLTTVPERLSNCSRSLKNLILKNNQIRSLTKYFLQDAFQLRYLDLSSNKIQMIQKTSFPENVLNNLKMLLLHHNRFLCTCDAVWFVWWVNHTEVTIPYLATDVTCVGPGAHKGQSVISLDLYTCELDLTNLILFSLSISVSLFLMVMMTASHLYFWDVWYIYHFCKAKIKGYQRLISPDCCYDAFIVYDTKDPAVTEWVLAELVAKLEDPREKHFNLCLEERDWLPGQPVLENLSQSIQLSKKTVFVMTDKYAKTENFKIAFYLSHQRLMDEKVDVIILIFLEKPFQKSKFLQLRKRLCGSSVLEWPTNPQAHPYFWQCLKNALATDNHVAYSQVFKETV

Toll-like receptor 8 = molecular target: T2, Toll-like receptor 8 (Homo sapiens, UniProt Q9NR97); assay: as §1
T2 sequence (Q9NR97 whole entry): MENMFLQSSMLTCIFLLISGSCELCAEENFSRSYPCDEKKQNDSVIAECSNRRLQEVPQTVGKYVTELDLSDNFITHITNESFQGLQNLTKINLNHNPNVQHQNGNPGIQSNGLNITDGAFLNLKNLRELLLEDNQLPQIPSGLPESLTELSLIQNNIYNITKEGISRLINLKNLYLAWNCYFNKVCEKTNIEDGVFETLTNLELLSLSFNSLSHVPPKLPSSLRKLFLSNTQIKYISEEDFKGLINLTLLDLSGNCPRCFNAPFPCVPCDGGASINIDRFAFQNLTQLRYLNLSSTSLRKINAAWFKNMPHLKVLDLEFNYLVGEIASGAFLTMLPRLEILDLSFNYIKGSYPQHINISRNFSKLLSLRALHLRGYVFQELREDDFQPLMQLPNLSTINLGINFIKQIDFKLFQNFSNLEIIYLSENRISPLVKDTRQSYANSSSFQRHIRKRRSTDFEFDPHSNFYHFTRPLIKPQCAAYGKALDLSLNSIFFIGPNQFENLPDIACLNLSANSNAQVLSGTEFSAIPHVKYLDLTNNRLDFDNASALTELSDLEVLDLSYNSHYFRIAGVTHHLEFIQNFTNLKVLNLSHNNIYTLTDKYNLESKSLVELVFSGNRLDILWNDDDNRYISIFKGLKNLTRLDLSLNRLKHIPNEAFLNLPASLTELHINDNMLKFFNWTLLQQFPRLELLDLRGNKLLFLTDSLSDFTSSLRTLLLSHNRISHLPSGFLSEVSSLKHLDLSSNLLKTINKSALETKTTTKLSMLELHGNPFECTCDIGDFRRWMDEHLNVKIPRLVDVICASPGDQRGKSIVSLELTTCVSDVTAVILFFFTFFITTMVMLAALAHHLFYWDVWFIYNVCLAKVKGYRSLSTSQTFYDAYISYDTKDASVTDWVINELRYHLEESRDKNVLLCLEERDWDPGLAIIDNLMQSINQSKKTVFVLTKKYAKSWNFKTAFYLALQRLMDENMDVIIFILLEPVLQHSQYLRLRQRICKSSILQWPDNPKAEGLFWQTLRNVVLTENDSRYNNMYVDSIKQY

`CCCN(CCC)C(=O)C1=Cc2ccc(C(=O)N3CC(OCc4ccccc4)C3)cc2N=C(N)C1` was tested, and the EC50 (Toll-like receptor 7) was 15 µM and the EC50 (Toll-like receptor 8) was 0.004 µM.
